Experimental findings from BindingDB's records for patent US20240059711 (University of Michigan, 2024) are described below.

Molecules are shown by their SMILES.

The target in this experiment is Protein cereblon (Homo sapiens, UniProt Q96SW2). In words: Cereblon Binding Assay. The protocol: The binding to cereblon (CRBN) was determined using the Cereblon Binding Kit (Cisbio, #64BDCRBNPEG) following the manufacturer's instruction. Briefly, serially diluted compounds were incubated with GST-tagged wild-type human CRBN protein, XL665-labelled Thalidomide and Europium Cryptate labelled GST antibody at room temperature for about 3 hours. Time Resolved Fluorescence Resonance Energy Transfer (TR-FRET) measurements were acquired on a CALRIOstar plate reader with MARS data analysis software (BMG Labtech), with the following settings: 665/10 nm and 620/10 nm emission, 60 μs delay and 400 μs integration. The TR-FRET ratio was taken as the 665/620 nm intensity ratio.
Sequence of Protein cereblon (Q96SW2 whole entry): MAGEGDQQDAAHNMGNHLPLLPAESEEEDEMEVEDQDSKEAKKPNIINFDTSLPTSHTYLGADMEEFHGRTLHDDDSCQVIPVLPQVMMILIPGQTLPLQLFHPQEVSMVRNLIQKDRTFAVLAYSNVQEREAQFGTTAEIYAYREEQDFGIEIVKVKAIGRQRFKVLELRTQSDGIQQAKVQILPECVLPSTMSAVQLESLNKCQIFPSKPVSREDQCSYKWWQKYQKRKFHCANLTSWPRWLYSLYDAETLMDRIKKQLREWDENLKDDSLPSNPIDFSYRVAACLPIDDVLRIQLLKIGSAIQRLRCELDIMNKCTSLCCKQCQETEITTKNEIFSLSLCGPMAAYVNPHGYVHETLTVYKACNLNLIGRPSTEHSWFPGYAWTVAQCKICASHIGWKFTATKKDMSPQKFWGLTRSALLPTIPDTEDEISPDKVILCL

One may read the IC50 as the concentration that gives 50% inhibition. Consider `O=C1CCC(N2Cc3c(ccc4c3O[C@H](COCc3ccccc3)CO4)C2=O)C(=O)N1` (some centres not stated) [US20240059711, Compound B10], for which the IC50 was determined as 800 nM. For `O=C1CCC(N2Cc3c(ccc4c3O[C@@H](COCc3ccccc3)CO4)C2=O)C(=O)N1` (some centres not stated) [US20240059711, Compound B9] the value was 580 nM.
